Laboratory results from patent publication US20120129781A1, “COMPOSITION COMPRISING ALPHA-LIPOIC ACID AND CARNOSINE FOR TREATING THE PHANTOM LIMB SYNDROME” (DIFASS INTERNATIONAL S.R.L., priority 2009, published 2012).

Columns and labels:
[1] = tested on: phantom limb pain; details: literature reports (Smith et al. 2005; Bergmans et al. 2002); cited from earlier work
[2] = tested on: phantom limb syndrome; assay: Two-month daily oral treatment of lower-limb amputee patients affected by phantom limb syndrome (ASIS, VAS, McGill Pain Questionnaire, QoL at t0, 30 and 60 days); type: in vivo; details: lower-limb amputees, daily oral uptake for two months, evaluated at t0, 30 and 60 days
Text: In order not to negatively influence the test, it was decided not to include the following in such groups: diabetic patients (in order to avoid interferences with the symptoms of diabetic neuropathy and with the drugs used by the diabetic patient), subjects with psychiatric pathologies also at a compensation stage, subjects with serious cognitive deficits, subjects affected by active hepatic and/or renal pathologies, subjects with organ pathologies and/or other serious comorbidities.
Group A (reference) was subdivided into two uniform groups A1 and A2; group A1 was subjected to a conventional treatment, orally taking for two months a daily dosage amount of the neuromodulator Gabapentin, a known anti-epileptic drug with indications in the treatment of neuropathic pain, as described in US patent application publication No. US 2006/159743. Group A2 was subjected to the same treatment, substituting the neuromodulator Gabapentin with the analogous neuromodulator Pregabalin.
Groups B and C were subjected, during the same two-month period, to a daily uptake of the composition 1 and, respectively, 2 of the present invention, in the same daily dosage amount of 1,200 mg.
This text is aimed at investigating how an amputee perceives their own body image. It is constituted by 20 points; the subjects are asked to indicate their answer by using a scale from 1 (never) to 5 (always). […]

| Structure (SMILES) | effect on phantom limb pain (literature) [1] | phantom limb pain and stump pain (VAS and McGill Pain Questionnaire) [2] | phantom limb sensation (sensation of possession of the missing limb, ASIS Amputee Body Image Scale) [2] |
| --- | --- | --- | --- |
| CCC(=O)C(CC(C)N(C)C)(c1ccccc1)c1ccccc1 (stereo not drawn) [methadone] | effective reduction of the phantom limb pain | – | – |
| CC(C)C[C@H](CN)CC(=O)O [pregabalin] | – | only experienced a certain decrease of the pain | did not receive any benefit |
